Laboratory results: publication PMC6272242, “Topical Anti-inflammatory Activity of New Hybrid Molecules of Terpenes and Synthetic Drugs” (Molecules, 2015)

What was measured:
lung fibroblasts (MRC-5) = assay: Cytotoxicity, MTT reduction assay, MRC-5; format: cell-based; conditions: Homo sapiens, MRC5, confluent cultures, 24 h, read-out: IC50 ± SD, MRC-5
Protocol: (§1) The human cell lines, MRC-5 normal lung fibroblasts (CCL-171), AGS gastric epithelial adenocarcinoma cells (CRL-1739) and HepG2 hepatocellular carcinoma cells (HB-8065) were obtained from the American Type Culture Collection (ATCC, Manasas, VA, USA). The cells were grown as monolayers in the following media: MRC-5 and HepG2 in MEM and AGS in Ham F-12. The MEM medium contained 2 mM L-glutamine, 1 mM sodium pyruvate and 1.5 g/L sodium bicarbonate. Ham F-12 was supplemented with 2 mM L-glutamine and 1.5 g/L sodium bicarbonate. Both media were supplemented with 10% heat inactivated fetal bovine serum, 100 IU/mL penicillin and 100 µg/mL streptomycin in a humidified incubator with 5% CO2 in air at 37 °C. For the experiments, cells were plated at a density of 25,000 cells/mL in 96-well plates. […] Compounds were first dissolved in DMSO and then in medium. The final concentration of DMSO in the test medium and controls was 1%. […] The cell viability for each compound was calculated comparing the cell viability of the untreated controls (100%) with the cell viability of the different concentrations of each compound. Each concentration was tested in quadruplicate together with the control and repeated three times in separate experiments. Cell viability was determined at the end of the incubation by means of the MTT reduction assay. Results were converted to percentage of controls, and the IC50 values were graphically obtained from the dose-response curves. Culture media, antibiotics and fetal bovine serum were obtained from Invitrogen Corp. (Waltham, MA, USA). Other reagents were purchased from Sigma Chemical Co. For the animal experiments all values are presented as median ± SEM. Drug-induced changes were statistically estimated using the Kruskall-Wallis test for comparison between groups and testing, and the Mann-Whitney test was used in the independent data for individual comparisons. The effects were considered significant if p ≤ 0.05. For cytotoxicity experiments, each concentration was tested in quadruplicate together with the control and repeated three times in different experiments. Results are expressed as IC50 values (µM) ± S.D.

[1] = system: mice ear edema induced by 12-O-tetradecanoylphorbol 13-acetate; assay: Topical anti-inflammatory effect, 12-O-tetradecanoylphorbol 13-acetate (TPA) induced ear edema in mice; format: in vivo; conditions: 1.4 µmol/mouse, 6 h after TPA, n = 8, read-out: % TATPA ± SEM (percent reduction of the ear edema, TPA)
Protocol: (§2) The inflammatory agent arachidonic acid (AA) and phorbol 12-myristate 13-acetate (TPA) were used to assess the anti-inflammatory effect/action mechanism of the starting compounds, new synthetic products and reference drugs. […] Adult male CF-1 mice (20–25 g), obtained from a stock maintained at the Chilean Public Health Institute, were used to assess the anti-inflammatory effect. All animals were housed in a climate- and light-controlled room with a 12 h light-dark cycle, fasted overnight before the day of the assays, with free access to water. The anti-inflammatory activity of each compound was evaluated in groups of 8 treated and 16 control mice. Due to ethical considerations, the number of animals was kept to a minimum and single dose experiments were carried out.
(§3) The pro-inflammatory agents TPA and AA, the reference drugs indomethacin and nimesulide were from Sigma. […] After 5 min, inflammation was induced by the application of 20 µL TPA or AA (5 mg/mL) in acetone. […] Control subjects only received TPA or AA. Both, the sample and the TPA or AA, were applied to the inner (10 µL) and outer (10 µL) surfaces of the right ear. The left ear only received acetone. Mice were sacrificed by cervical dislocation (after 6 h of TPA and 1 h AA), and a 6 mm diameter section of the right and left ears were cut and weighed. The weight differences between both ear sections correspond to the edema value. The percent topical anti-inflammatory activity (TA) was evaluated according to the following equation: (1) %TA=[ Wc−Ws/Wc]× 100 where Wc and Ws are the different median values of the weights of the right and the left ear sections of the control and the treated animals, respectively.
(§4) For the animal experiments all values are presented as median ± SEM. Drug-induced changes were statistically estimated using the Kruskall-Wallis test for comparison between groups and testing, and the Mann-Whitney test was used in the independent data for individual comparisons. The effects were considered significant if p ≤ 0.05. For cytotoxicity experiments, each concentration was tested in quadruplicate together with the control and repeated three times in different experiments. Results are expressed as IC50 values (µM) ± S.D.

[2] = system: gastric epithelial cells (AGS); assay: Cytotoxicity, MTT reduction assay, AGS; format: cell-based; conditions: Homo sapiens, Epithelial cell, confluent cultures, 24 h, read-out: IC50 ± SD, AGS
Protocol: as §1

xylene-induced ear edema = system: xylene-induced ear edema; set-up: method as in PMID 16806590; conditions: mice; cited from earlier work
[3] = system: mice ear edema induced by arachidonic acid; assay: Topical anti-inflammatory effect, arachidonic acid (AA) induced ear edema in mice; format: in vivo; conditions: 3.2 µmol/mouse; for inhibition in vivo at 3.2 µmol/animal: 1 h after AA, n = 8, read-out: % TAAA ± SEM (percent reduction of the ear edema, arachidonic acid)
Protocol: as §2, §3, §4

[4] = system: acetic acid-induced writhing; set-up: method as in PMID 12767601; conditions: oral administration, ibuprofen at 40 mg/kg; cited from earlier work
hepatocytes HepG2 = assay: Cytotoxicity, MTT reduction assay, HepG2; format: cell-based; conditions: Homo sapiens, confluent cultures, 24 h, read-out: IC50 ± SD, HepG2
Protocol: as §1, with “Results were converted to percentage of controls, and the IC50 values were graphically obtained from the dose-response curves.” left out

[5] = system: human lung fibroblasts (MRC-5), gastric epithelial cells (AGS) and hepatocytes HepG2; assay: Cytotoxicity, MTT reduction assay, summary over the three cell lines; format: cell-based; conditions: Homo sapiens; MRC-5, AGS and HepG2, 24 h, MTT; read-out: IC50 values, range over the three cell lines
Protocol: as §1

Compound | IC50 (lung fibroblasts (MRC-5)) [µM] | inhibition in vivo at 1.4 µmol/animal [1] [%] | IC50 [2] [µM] | Reduction of xylene-induced ear edema (xylene-induced ear edema) [%] | Activity in the AA model, in words [3] | inhibition in vivo at 3.2 µmol/animal [3] [%] | Reduction of stretches [4] [%] | IC50 (hepatocytes HepG2) [µM] | IC50 [5] [µM]
CC(C)Cc1ccc(C(C)C(=O)O)cc1 (stereo not shown) [Compound 4, ibuprofen, reference compound] | > 1000 | 56.2 ± 3.4 | > 1000 | 45.9 | inactive | 7.2 ± 5.5 | 77.6 | > 1000 | > 1000
ibuprofen propyl glucopyranoside ester |  |  |  | 52.7 |  |  |  |  | 
C=C1CCC2[C@](C)(CCC[C@]2(C)C(=O)OC)[C@H]1CC[C@@H](C)CCOC(=O)[C@@H](C)c1ccc(CC(C)C)cc1 (mixture of isomers) [Compound 9, Imbricatol-15-yl ibuprofenate methyl ester] | 706 ± 35 | 41.2 ± 6.2 | 623 ± 39 |  |  | 14.9 ± 7.4 |  | 746 ± 38 | ≥ 601
CC(C)Cc1ccc([C@H](C)C(=O)Oc2cc3c(cc2C(C)C)CCC2C(C)(C)CCC[C@]32C)cc1 (mixture of isomers) [Compound 6, Ferruginyl ibuprofenate] | > 1000 | 47.9 ± 4.6 | > 1000 |  |  | 14.9 ± 7.1 |  | 874 ± 34 | ≥ 874
C=C1CCC2[C@](C)(CCC[C@]2(C)C(=O)O)[C@H]1CC[C@@H](C)CCOC(=O)[C@@H](C)c1ccc2cc(OC)ccc2c1 (stereo partly shown) [Compound 10, Imbricatol-15-yl naproxenate] | 37 ± 2 | 37.7 ± 3.3 | 29 ± 2 |  |  | 16.3 ± 3.8 |  | 69 ± 4 | 29 to 69
